Reference: patent EP1566447A1, “Glimepiride- and insulin-induced glycosylphosphatidylinositol-specific phospholipase C regulation” (priority 2004, dated 2005)
Entries after “also recorded” stand apart in the source; their conditions may differ.

Test system: rat adipocytes
Assay: isoproterenol-induced lipolysis (glycerol release)
Assay type: cell-based
Procedure: Electroporation was performed as described in "Müller, G. et al., (2000) Mol. Cell. Biol. 20: 4708-4723". Lipolysis was determined as release of glycerol or fluorescent NBD-FA from prelabeled and isoproterenol-stimulated adipocytes as described in "Müller, G. et al., (2003) Biochimie 85: 1245-1256". Gce1 was detected by photolabeling of solubilized plasma membranes or hc/IcDIGs (10-50 µg protein) with 8-N3-[^32P]cAMP and subsequent phosphorimaging as described in "Müller, G. et al., (1994) Biochemistry 33: 12149-12159". 5'-Nuc, aP and AChE activities were measured according to "Eliakim, R. et al., (1990) Biochim. Biophys. Acta 1355: 293-302". Protein was determined using the BCA protein determination kit from Pierce (Rockford, IL) and BSA as calibration standard. SDS-PAGE was performed using precast gels (Novex, San Diego, CA; 10 % Bis-Tris resolving gel, morpholinopropanesulfonic acid-SDS running buffer). Lumiimages were evaluated on a Lumilmager using Lumilmager software (Roche Diagnostics). Phosphor- and fluorescence images were processed and quantified using the Storm 860 Phosphorlmager system (Molecular Dynamics, Gelsenkirchen, Germany). Figures were constructed using the Adobe Photoshop software (Adobe Systems, Mountain View, CA).
Fig. 8: Effect of GPI-2350 on the glimepiride/insulin-induced metabolic activity. Isolated rat adipocytes were treated (5 min, 37°C) without or with GPI-2350 (Panel A, 50 µM; Panel B, increasing conc.; Panel C, 5 µM, 50 µM) and then incubated (15 min, 37°C) in the absence or presence of insulin (Ins, 10 nM) or glimepiride (Gli, 20 µM or increasing conc.) as indicated. The adipocytes were then assayed for glucose transport and isoproterenol-induced lipolysis. The activity is given relative to the absence of GPI-2350 in the control reaction (Panels A, basal) or in the insulin- and glimepiride-stimulated state (Panels B and C, set at 100). Means ± SD of at least 5 independent cell incubations with activity measurements in triplicate each are given.

CCCCCCCCCCCCP1(=O)O[C@@H]2[C@H](O)[C@@H](O)[C@H](O)[C@@H](O)[C@@H]2O1 (mixture of isomers) [GPI-2350, myo-inositol-1,2-cyclo-dodecylphosphonic acid] was tested, and the “effect on inhibition of lipolysis in response to glimepiride” value (50 µM) was “almost complete blockade; also recorded: lower than control values”, the IC50 (Rattus norvegicus, Adipocyte) was 2 to 5 µM and the inhibition at 50 µM (Rattus norvegicus, Adipocyte, 50 µM, insulin 10 nM, read-out: reduction of insulin inhibition of isoproterenol-induced lipolysis) was ≤ 33%.
